Source: US20210323940A1 (OCEANS LTD., priority 2018, published 2021)

What was measured:
Format in all cases: cell-based, human
[1] = tested on: MDA-MB-231 (mammary gland adenocarcinoma); assay: CIMA assay (MTT, 72 h); settings: MDA-MB
Description: Experimental: Stock solutions of the test compounds were prepared in dimethylsulfoxide (DMSO) at 10 mg/ml and stored at −20° C. until used. This preparation ensures that the DMSO content delivered to cells in culture never exceeds 1%. […] Cell proliferation was initially assessed using a standard colorimetric indicator of metabolic activity (CIMA) assay. In this assay, reduction of yellow tetrazolium salt (MTT) to purple formazan by mitochondrial reductases enzymes in viable cells were measured as change in absorbance (λ=500-600).
(§1) Seven human cell lines were evaluated: U373 (glioblastoma-astrocytoma), A549 (lung carcinoma), PC3 (prostate adenocarcinoma), THP1 (acute monocytic leukemia), MDA-MB-231 (mammary gland adenocarcinoma), SKOV3 (ovarian adenocarcinoma) and CCD1079Sk (normal skin fibroblast) cells.

[2] = tested on: CCD1079SK (fibroblast, noncancerous but proliferating); assay: CIMA assay (tetrazolium reduction, cell viability, 72 h); settings: CCD
Description: (§2) Prepared extracts were assessed following chronic exposure conditions in which cells were seeded at 2×10^3 cells/well (96 wells-plate) and incubated with test compounds for 72 h. Each compound was evaluated over a range of concentrations (0, 10, 25, 50 or 100 μg/ml). Cell proliferation was initially assessed using a standard colorimetric indicator of metabolic activity (CIMA) assay. In this assay, tetrazole reduction was evaluated as a measure of metabolic function that evaluates mitochondrial activity to determine the extent of cell proliferation within a culture. This assay is based on the reduction of yellow tetrazolium salt to purple formazan by mitochondrial reductases enzyme in viable cells, resulting in a color change that confers a change in absorbance. Seven human cell lines were selected for primary evaluation: U373 (glioblastoma-astrocytoma), A549 (lung carcinoma), THP-1 (acute monocytic leukemia), MCF7 (mammary gland adenocarcinoma), SKOV3 (ovarian adenocarcinoma), PC3 (prostate adenocarcinoma) and CCD1079SK (fibroblast, noncancerous but proliferating) (see FIG. 2 and Table 2). Results are expressed in Table 2 as % viability (means±standard deviation of three replicates), with LD50/IC50 values in Tables 3 and 6. […] The maximum DMSO concentration was 1% at 100 μg/ml with 5% SDS used as a known toxic inducer.
(§3) Experimental: Stock solutions of the test compounds were prepared in dimethylsulfoxide (DMSO) at 10 mg/ml and stored at −20° C. until used. This preparation ensures that the DMSO content delivered to cells in culture never exceeds 1%. Appropriate cells number, based on previous assays, were seeded in 96 well plate and incubated with test compounds (up to 8 log concentrations, 0 to 50 or 100 μg/ml) for 72 h. Cell proliferation was initially assessed using a standard colorimetric indicator of metabolic activity (CIMA) assay. In this assay, reduction of yellow tetrazolium salt (MTT) to purple formazan by mitochondrial reductases enzymes in viable cells were measured as change in absorbance (λ=500-600).
as §1

[3] = tested on: PC3 (prostate adenocarcinoma); assay: as above; settings: PC3
Description: as §2, §3, §1

[4] = tested on: SKOV3 (ovarian adenocarcinoma); assay: as above; settings: SKOV
Description: as §2, §3, §1

[5] = tested on: THP-1 (acute monocytic leukemia); assay: as above; settings: THP-1
Description: as §2, §3, §1

A549 (lung carcinoma) = assay: as above; settings: A549
Description: as §2, §3, §1

[6] = tested on: U373 (glioblastoma-astrocytoma); assay: as above; settings: U373
Description: as §2, §3, §1

Q: Which results are given for CCCCCC(O)C(O)/C=C/C1CCCCCCCC(=O)O1 (racemic) [compound (I), 12,13-dihydroxy-10-octadecen-9-olide]?
A: fold change viability (AVG) ([1]; 1 ug/mL): 1.10; fold change viability (AVG) ([1]; 10 ug/mL): 1.05; fold change viability (AVG) ([1]; 50 ug/mL): 0.72; fold change viability (AVG) ([1]; 100 ug/mL): 0.21; fold change viability (AVG) ([2]; 1 ug/mL): 1.00; fold change viability (AVG) ([2]; 10 ug/mL): 0.92; fold change viability (AVG) ([2]; 50 ug/mL): 0.99; fold change viability (AVG) ([2]; 100 ug/mL): 0.18; fold change viability (AVG) ([3]; 1 ug/mL): 1.03; fold change viability (AVG) ([3]; 10 ug/mL): 0.96; fold change viability (AVG) ([3]; 50 ug/mL): 1.01; fold change viability (AVG) ([3]; 100 ug/mL): 0.19; fold change viability (AVG) ([4]; 1 ug/mL): 1.04; fold change viability (AVG) ([4]; 10 ug/mL): 1.05; fold change viability (AVG) ([4]; 50 ug/mL): 1.01; fold change viability (AVG) ([4]; 100 ug/mL): 0.92; fold change viability (AVG) ([5]; 1 ug/mL): 1.09; fold change viability (AVG) ([5]; 10 ug/mL): 0.95; fold change viability (AVG) ([5]; 50 ug/mL): 0.77; fold change viability (AVG) ([5]; 100 ug/mL): 0.50; fold change viability (AVG) (A549 (lung carcinoma); 1 ug/mL): 1.11; fold change viability (AVG) (A549 (lung carcinoma); 10 ug/mL): 1.09; fold change viability (AVG) (A549 (lung carcinoma); 50 ug/mL): 1.08; fold change viability (AVG) (A549 (lung carcinoma); 100 ug/mL): 0.72; fold change viability (AVG) ([6]; 1 ug/mL): 0.92; fold change viability (AVG) ([6]; 10 ug/mL): 0.86; fold change viability (AVG) ([6]; 50 ug/mL): 0.69; fold change viability (AVG) ([6]; 100 ug/mL): 0.03

Q: With CCCCCCCCCCCCOS(=O)(=O)[O-].[Na+] [SDS, reference compound] as the molecule, how does the average cell viability ([1]; positive control, 250 ug/ml) read?
A: Its average cell viability is 14.
